# Test results: US20200385489A1, “USING COLIPASE INHIBITORS TO TREAT PANCREATITIS” (Mayo Foundation for Medical Education and Research, priority 2015, published 2020)
# B1: Colipase: colipase polypeptide added to the medium (0.25 mcg/mL) as cofactor of pancreatic lipases (protein, UniProt P04118 23-112, looked up)
# Colipase: GIIINLENGELCMNSAQCKSNCCQHSSALGLARCTSMASENSECSVKTLYGIYYKCPCERGLTCEGDKTIVGSITNTNFGICHDAGRSKQ
# Tests used:
# adipocytes = assay: Isoproterenol induced lipolysis in adipocytes (glycerol release); assay type: cell-based; settings: Iso 10 μM; inhibitor 50 μM
# Procedure: (§1) Adipocytes were stimulated by isoproterenol (Iso 10 μM) or co-cultured with pancreatic acini. The adipose triglyceride lipase (ATGL) inhibitor atglistatin or the pancreatic lipase inhibitor orlistat (50 μM each) was added in some conditions.
# Glycerol release was measured as a marker of lipolysis in adipocytes. Isoproterenol induced lipolysis in adipocytes.
# [1] = tested on: Differentiated 3T3-LI adipocytes; assay: IL-6 release from PTL-transfected 3T3-LI adipocytes with colipase (luminex); assay type: cell-based; settings: PTL + colipase 0.25 mcg/mL; orlistat 20 micromolar every 2 hours
# Procedure: (§2) Differentiated 3T3-LI adipocytes with lipid droplets were transfected with adenovirus expressing pancreatic triglyceride lipase (PTL) or left as unstimulated controls. The medium was replaced with serum free medium alone or with colipase (0.25 mcg/mL). In some wells the lipase inhibitor orlistat (20 micromolar) was added every 2 hours. Cytokine release was measured as a marker of inflammatory response. IL-6 release into the medium was measured by luminex. There was a significant release of IL-6 only when both colipase and PTL were present. This release was prevented by orlistat (FIG. 6A).
# pancreatic acini = assay: Adipocyte induced necrosis in pancreatic acini (co-culture); assay type: cell-based; settings: inhibitor 50 μM
# Procedure: as §1
# Co-culture of adipocytes and pancreatic acini induced necrosis in the acini.
# [2] = tested on: rats with lethal pancreatitis; assay: Caerulein plus glyceryl trioleate lethal pancreatitis in rats; assay type: in vivo, rat; settings: orlistat 50 mg/kg
# Procedure: Pancreatitis was induced in rats and flow cytometry was performed on white blood cells (WBCs) from peripheral blood.
# Rats (100 gm rats) were either given caerulein (20 mcg/kg BID (twice a day) intraperitoneally) to induce pancreatitis or left untreated as control animals. Some rats were also given glyceryl trioleate (3 ml intraperitoneally) to induce lactate dehydrogenase (LDH) leakage. Some rats also received the lipase inhibitor orlistat (50 mg/kg). Blood was collected from rats 2 days after induction of caerulein pancreatitis with or without administration of caerulein, glyceryl trioleate, and/or orlistat.
# [3] = tested on: Differentiated 3T3-LI adipocytes; assay: Glycerol release (lipolysis) from PTL-transfected 3T3-LI adipocytes with colipase; assay type: cell-based; settings: PTL + colipase 0.25 mcg/mL; orlistat 20 micromolar every 2 hours; over 8 hours
# Procedure: Differentiated 3T3-LI adipocytes with lipid droplets were transfected with adenovirus expressing pancreatic triglyceride lipase (PTL) to induce lactate dehydrogenase (LDH) leakage or left as unstimulated controls. The medium was replaced with serum free medium alone or with colipase (0.25 mcg/mL). In some wells the lipase inhibitor orlistat (20 micromolar) was added every 2 hours. LDH leakage into the medium was measured as a marker of cell injury. […] Colipase increased this to 30-40% LDH leakage compared to controls. […] Glycerol release was measure as a marker of lipolysis. […] Colipase increased glycerol release compared to controls. Glycerol release was prevented by the lipase inhibitor orlistat (FIG. 3B).
# [4] = tested on: Differentiated 3T3-LI adipocytes; assay: LDH leakage from PTL-transfected 3T3-LI adipocytes with colipase; assay type: cell-based; settings: over 8 hours
# Procedure: Differentiated 3T3-LI adipocytes with lipid droplets were transfected with adenovirus expressing pancreatic triglyceride lipase (PTL) to induce lactate dehydrogenase (LDH) leakage or left as unstimulated controls. The medium was replaced with serum free medium alone or with colipase (0.25 mcg/mL). In some wells the lipase inhibitor orlistat (20 micromolar) was added every 2 hours.
# LDH leakage into the medium was measured as a marker of cell injury. […] Colipase increased this to 30-40% LDH leakage compared to controls. […] Glycerol release was measure as a marker of lipolysis. […] Colipase increased glycerol release compared to controls. Glycerol release was prevented by the lipase inhibitor orlistat (FIG. 3B).
# Rat parotid acini = assay: LDH leakage from rat parotid acini exposed to glyceryl trilinoelate, human PTL and human colipase; assay type: cell-based; settings: glyceryl trilinoelate 300 micromolar + human PTL 1 micrograms/mL + human colipase 0.25 micrograms/mL; orlistat 50 micromolar or serum 1:4 dilution; over 4 hours
# Procedure: Cells exposed to glyceryl trilinoelate, PTL, and colipase were treated at a 1:4 dilution with either orlistat (50 micromolar), serum from mice immunized against human colipase, or serum from unimmunized mice. […] (LDH) leakage into the medium was measured over 4 hours.
# [5] = tested on: Differentiated 3T3-LI adipocytes; assay: MCP-1 release from PTL-transfected 3T3-LI adipocytes with colipase (luminex); assay type: cell-based; settings: PTL + colipase 0.25 mcg/mL; orlistat 20 micromolar every 2 hours
# Procedure: as §2, with “MCP-1” for “IL-6”, “6B).” for “6A).”
Molecule,Isoproterenol induced lipolysis (glycerol release) (adipocytes),IL-6 release into the medium [1],Adipocyte induced necrosis in pancreatic acini as measured by glycerol release (pancreatic acini),Adipocyte induced necrosis in pancreatic acini as measured by propidium iodide uptake (pancreatic acini),Survival ([2]; caerulein + glyceryl trioleate (97% mortality by day 3 without treatment)),"Apoptosis of circulating cells (annexin V positive CD11b) ([2]; caerulein + glyceryl trioleate, blood 2 days after induction)",Glycerol release (marker of lipolysis) [3],"LDH leakage into the medium (marker of cell injury) ([4]; PTL + colipase 0.25 mcg/mL, orlistat 20 micromolar added every 2 hours)",LDH leakage into the medium (Rat parotid acini),MCP-1 release into the medium [5],"LDH leakage compared to controls ([4]; PTL-transfected adipocytes, colipase 0.25 mcg/mL)"
CN(C)C(=O)Nc1cccc(-c2ccc(N(C)C)cc2)c1 [atglistatin],inhibited,,,,,,,,,,
CCCCCCCCCCC[C@@H](C[C@@H]1OC(=O)[C@H]1CCCCCC)OC(=O)[C@H](CC(C)C)NC=O [orlistat],"but not orlistat, inhibited",prevented,inhibited,inhibited,survive,prevented,prevented,completely prevented,significantly reduced,prevented,
B1,,,,,,,,,,,30-40%
